Counter-ions that a name gives are not always drawn. Like-named read-outs stand apart in the source and are kept apart here.
What was measured:
human 5-HT2B receptors = target: T1, human 5-HT2B receptors (Homo sapiens, UniProt P41595); experiment: Binding to 5-HT2B receptor, [3H]-5-HT, Method (b)
T1 construct: expressed in transfected cells; host or cells: CHO cell line
Experimental: (§1) The binding of compounds of formula (I) to serotonin receptors was determined in vitro by standard methods. The preparations were investigated in accordance with the assays given below.
Method (b): For the binding to the 5-HT2B receptor, the 5-HT2B receptors were radiolabeled with [^3H]-5-HT. The affinity of the compounds for human 5-HT2B receptors in a CHO cell line was determined according to the procedure of K. Schmuck, C. Ullmer, P. Engels and H. Lubbert, FEBS Lett., 1994, 342, 85–90.
(§2) The Ki value is definied as an inhibition constance and is determined from the IC50 value as described in Cheng, Yung-Chi and Prusoff, W. H., Biochem. Pharmacol., 1973, 22(23), 3099–108.

5-HT2C receptor [1] = target: T2, 5-HT2C receptor (Homo sapiens, UniProt P28335); experiment: Functional activity, FLIPR calcium assay, CHO cells expressing human 5-HT2C; assay type: cell-based; set-up: expressed in transfected cells; host or cells: CHO cells; settings: for h5-HT2c Relative Efficacy: maximum fluorescent signal relative to 10 μM 5-HT (defined as 100%)
T2 sequence (P28335 33-458): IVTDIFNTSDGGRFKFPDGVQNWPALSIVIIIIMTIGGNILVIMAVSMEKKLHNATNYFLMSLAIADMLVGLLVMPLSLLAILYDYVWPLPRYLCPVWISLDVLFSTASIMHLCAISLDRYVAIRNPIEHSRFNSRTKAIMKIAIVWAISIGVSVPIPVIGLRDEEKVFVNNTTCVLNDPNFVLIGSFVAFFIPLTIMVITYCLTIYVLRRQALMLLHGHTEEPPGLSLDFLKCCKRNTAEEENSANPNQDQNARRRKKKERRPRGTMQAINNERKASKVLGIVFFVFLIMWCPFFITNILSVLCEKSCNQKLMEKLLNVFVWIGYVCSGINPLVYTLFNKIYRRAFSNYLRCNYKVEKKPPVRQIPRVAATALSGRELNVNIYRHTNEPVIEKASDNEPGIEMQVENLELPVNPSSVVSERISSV
Experimental: (§3) The functional activity of compounds of formula (I) was assayed using a Fluorimetric Imaging Pate reader (FLIPR). CHO cells expressing the human 5-HT2C or human 5-HT2A receptors were counted and plated into standard 96 well microtitre plates on the day before testing to give a confluent monolayer. The cells were then dye loaded with the calcium sensitive dye, Fluo-3-AM. Unincorporated dye was removed using an automated cell washer to leave a total volume of 100 μL/well of assay buffer (Hanks balanced salt solution containing 20 mM Hepes and 2.5 mM probenecid). The drug (dissolved in 50 µL of the assay buffer) was added at a rate of 70 μL/sec to each well of the FLIPR 96 well plate during fluorescence measurements. The measurements were taken at 1 sec intervals and the maximum fluorescent signal was measured (approx 10–15 secs after drug addition) and compared with the response produced by 10 μM 5-HT (defined as 100%) to which it was expressed as a percentage response (relative efficacy). Dose response curves were constructed using Graphpad Prism (Graph Software Inc.).

5-HT2A receptor [2] = target: T3, 5-HT2A receptor (Homo sapiens, UniProt P28223); experiment: Functional activity, FLIPR calcium assay, CHO cells expressing human 5-HT2A; assay type: cell-based; set-up: expressed in transfected cells; host or cells: CHO cells; settings: for h5-HT2A Relative Efficacy: maximum fluorescent signal relative to 10 μM 5-HT (defined as 100%)
T3 sequence (P28223 whole entry): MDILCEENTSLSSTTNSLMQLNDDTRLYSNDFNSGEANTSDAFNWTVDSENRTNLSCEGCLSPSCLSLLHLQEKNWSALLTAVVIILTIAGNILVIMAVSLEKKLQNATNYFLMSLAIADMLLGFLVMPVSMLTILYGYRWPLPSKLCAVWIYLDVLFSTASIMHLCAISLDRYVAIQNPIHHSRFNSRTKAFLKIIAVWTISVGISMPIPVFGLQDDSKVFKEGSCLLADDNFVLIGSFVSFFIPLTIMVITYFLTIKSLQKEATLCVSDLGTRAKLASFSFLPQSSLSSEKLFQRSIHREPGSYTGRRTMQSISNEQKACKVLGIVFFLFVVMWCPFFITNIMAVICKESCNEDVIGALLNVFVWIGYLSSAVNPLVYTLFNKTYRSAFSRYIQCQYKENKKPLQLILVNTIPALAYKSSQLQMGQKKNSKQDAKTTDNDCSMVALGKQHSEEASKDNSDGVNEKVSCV
Experimental: as §3

5-HT2C receptor [3] = target: T2, 5-HT2C receptor; experiment: Binding to 5-HT2C receptor, [3H]-5-HT, Method (a); set-up: expressed in transfected cells; host or cells: CHO cell line
Experimental: as §1
Method (a): For the binding to the 5-HT2C receptor, the 5-HT2C receptors were radiolabeled with [^3H]-5-HT. The affinity of the compounds for 5-HT2C receptors in a CHO cell line was determined according to the procedure of D. Hoyer, G. Engel and H. O. Kalkman, European J. Pharmacol., 1985, 118, 13–23.
as §2

5-HT2A receptor [4] = target: T3, 5-HT2A receptor; experiment: Binding to 5-HT2A receptor, [125I]-DOI, Method (c); set-up: expressed in transfected cells; host or cells: CHO cell line
Experimental: as §1
Method (c): For the binding to the 5-HT2A receptor, the 5-HT2A receptors were radiolabeled with [^125I]-DOI. The affinity of the compounds for 5-HT2A receptors in a CHO cell line was determined according to the procedure of D. J. McKenna and S. J. Peroutka, J. Neurosci., 1989, 9, 3482–90.
as §2

rats = settings: literature; cited from earlier work
[5] = system: human volunteers and obese subjects; settings: literature, cited from earlier work
[6] = Method (b), [3H]-5-HT, human 5-HT2B in CHO cell line, Ki calculated from IC50, read-out: Ki (2B)
[7] = FLIPR, CHO cells, Fluo-3-AM, read-out: h5-HT2c EC50
[8] = FLIPR, CHO cells, Fluo-3-AM, read-out: h5-HT2A EC50
[9] = Method (a), [3H]-5-HT, CHO cell line, Ki calculated from IC50 (Cheng-Prusoff), read-out: Ki (2C)
[10] = Method (c), [125I]-DOI, CHO cell line, Ki calculated from IC50, read-out: Ki (2A)

T1 sequence (P41595 whole entry): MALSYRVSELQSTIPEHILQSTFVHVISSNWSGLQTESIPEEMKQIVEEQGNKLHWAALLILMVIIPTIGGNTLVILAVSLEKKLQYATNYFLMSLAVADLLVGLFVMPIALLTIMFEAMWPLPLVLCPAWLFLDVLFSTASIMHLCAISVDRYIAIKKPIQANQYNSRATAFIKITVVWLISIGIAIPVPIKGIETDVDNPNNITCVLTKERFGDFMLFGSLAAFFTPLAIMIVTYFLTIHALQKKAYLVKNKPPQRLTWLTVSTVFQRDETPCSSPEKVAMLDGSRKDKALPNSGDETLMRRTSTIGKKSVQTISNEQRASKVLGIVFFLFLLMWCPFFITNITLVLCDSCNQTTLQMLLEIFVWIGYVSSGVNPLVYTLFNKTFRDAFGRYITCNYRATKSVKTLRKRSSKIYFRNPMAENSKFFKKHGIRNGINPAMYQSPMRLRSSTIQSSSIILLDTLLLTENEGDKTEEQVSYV

Compound: CCCOc1cc(F)c(COC(=O)N2CCNC[C@H]2C)c(F)c1.O=C(O)/C=C/C(=O)O
- melting point: 193.9 to 194 °C

Compound: C[C@@H]1CNCCN1C(=O)OCc1ccc(OC(F)F)cc1.O=C(O)/C=C/C(=O)O
- melting point: 123.9 to 124.5 °C

Compound: Cl.O=C(OCc1ccc(Br)cc1F)N1CCNCC1
- melting point: 209.5 to 209.6 °C

Compound: CCOc1ccc(F)c(COC(=O)N2[C@H](C)CNC[C@@H]2C)c1.O=C(O)/C=C/C(=O)O
- melting point: 142.9 to 143.3 °C

Compound: CCCOc1ccc(F)c(COC(=O)N2CCNCC2)c1.O=C(O)/C=C/C(=O)O
- melting point: 155.9 to 156.1 °C

Compound: CCCOc1ccc(F)c(COC(=O)N2CCNC[C@H]2C)c1.O=C(O)/C=C/C(=O)O
- melting point: 162.6 to 162.7 °C

Compound: CCCCOc1ccc(F)c(COC(=O)N2CCNCC2)c1.O=C(O)/C=C/C(=O)O
- melting point: 142.4 to 143.5 °C

Compound: CCCCOc1ccc(F)c(COC(=O)N2CCNC[C@H]2C)c1.O=C(O)/C=C/C(=O)O
- melting point: 171.6 to 171.7 °C

Compound: CCCCOc1ccc(F)c(COC(=O)N2[C@H](C)CNC[C@@H]2C)c1.O=C(O)/C=C/C(=O)O
- melting point: 153.2 to 153.5 °C

Compound: CC(C)COc1ccc(F)c(COC(=O)N2[C@H](C)CNC[C@@H]2C)c1.O=C(O)/C=C/C(=O)O
- melting point: 178.6 to 178.7 °C

Compound: C[C@@H]1CNC[C@H](C)N1C(=O)OCc1c(F)ccc(Br)c1F.Cl
- melting point: 207 to 210 °C

Compound: Cl.O=C(SCc1ccc(OCc2ccc(F)cc2)cc1)N1CCNCC1
- melting point: 169 to 169.5 °C

Compound: CCCOc1cc(F)c(COC(=O)N2CCNCC2CC)c(F)c1.O=C(O)/C=C/C(=O)O (racemic)
- melting point: 145 to 165 °C (dec.)

Compound: Cl.O=C(OCc1ccc(OC(F)F)cc1)N1CCNCC1 [Example 22, Piperazine-1-carboxylic acid 4-difluoromethoxy-benzyl ester hydrochloride]
- Ki (human 5-HT2B receptors; [6]): 4000 nM
- EC50 (5-HT2C receptor [1]; [7]): 100 nM
- h5-HT2c Relative Efficacy (5-HT2C receptor [1]): 56%
- EC50 (5-HT2A receptor [2]; [8]): 220 nM
- h5-HT2A Relative Efficacy (5-HT2A receptor [2]): 24%
- Ki (5-HT2C receptor [3]; [9]): 44 nM
- Ki (5-HT2A receptor [4]; [10]): 44 nM

Compound: Cl.O=C(SCc1ccc(OCc2ccccc2)cc1)N1CCNCC1 [Example 32, Piperazine-1-carbothioic acid S-(4-benzyloxy-benzyl) ester hydrochloride]
- Ki (human 5-HT2B receptors; [6]): 370 nM
- EC50 (5-HT2C receptor [1]; [7]): 38 nM
- h5-HT2c Relative Efficacy (5-HT2C receptor [1]): 65%
- EC50 (5-HT2A receptor [2]; [8]): 560 nM
- h5-HT2A Relative Efficacy (5-HT2A receptor [2]): 22%
- Ki (5-HT2C receptor [3]; [9]): 15 nM
- Ki (5-HT2A receptor [4]; [10]): 6 nM

Compound: CC(C)NC(=O)Oc1ccc(CSC(=O)N2CCNCC2)cc1 [Example 63, S-4-[(2-Propylamino)carbonyl]oxybenzyl piperazine-1-thiocarboxylate hydrochloride]
- Ki (human 5-HT2B receptors): 8300 nM
- EC50 (5-HT2C receptor [1]): 33 nM
- h5-HT2c Relative Efficacy (5-HT2C receptor [1]): 74%
- EC50 (5-HT2A receptor [2]): 370 nM
- h5-HT2A Relative Efficacy (5-HT2A receptor [2]): 25%
- Ki (5-HT2C receptor [3]): 33 nM
- Ki (5-HT2A receptor [4]): 550 nM

Compound: Cc1noc(C)c1COc1cc(F)c(COC(=O)N2[C@H](C)CNC[C@@H]2C)c(F)c1 [Example 121, cis-2,6-Dimethyl-piperazine-1-carboxylic acid 4-(3,5-dimethyl-isoxazol-4-ylmethoxy)-2,6-difluoro-benzyl esterfumarate]
- Ki (human 5-HT2B receptors; [6]): 8400 nM
- EC50 (5-HT2C receptor [1]; [7]): 22 nM
- h5-HT2c Relative Efficacy (5-HT2C receptor [1]): 91%
- EC50 (5-HT2A receptor [2]; [8]): 550 nM
- h5-HT2A Relative Efficacy (5-HT2A receptor [2]): 11%
- Ki (5-HT2C receptor [3]; [9]): 15 nM
- Ki (5-HT2A receptor [4]; [10]): 200 nM

Compound: Clc1cccc(N2CCNCC2)c1 [mCPP, m-chlorophenylpiperazine]
- food intake in rats (rats): reduce food intake
- appetite and body weight ([5]; obese male and female subjects, subchronic treatment for a 14 day period): decreased the appetite and body weight
- food intake ([5]; single dose, female volunteers): decreased food intake

Reference: patent US7022707B2, “Piperazine derivatives” (Hoffman-La Roche Inc., priority 2000, dated 2006)
